Earlier results on one substance are cited in patent US20080318335A1, “Transgenic Plant for Detecting Environmental Chemicals” (priority 2005, published 2008).

The data set concerns GUS gene. The settings on record: tobacco including AhR vector; 5 nM 20-methylcholanthrene.

Turning to 20-methylcholanthrene, the GUS gene expression entry is listed as “expressed”.
